Assays:
[1] = test system: NCI-H358 (ATCC-CRL5807) cells; test: Cell viability assay, G12C (NCI-H358); assay type: cell-based, human; conditions: Homo sapiens; KRAS cell viability, NCI-H358, 72 hrs, Cell Counting Kit-8
Method in brief: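 Seed NCI-H358 5,000/well, AGS and SW620 2,000/well; overnight. Compound, 0.5% DMSO final, 72 hrs. CCK-8 2 hrs, OD450–OD650. IC50: 4-parameter fit.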

KRAS G12C-BRAF complex = KRAS G12C-BRAF complex (Homo sapiens (Human), UniProt P01116+P62937, G12C); test: KRAS G12C-BRAF NanoBit assay; assay type: cell-based; conditions: HEK293 cells, 3 hours of incubation
Method in brief: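 Stable HEK293 pool co-expressing SmBit-KRAS G12C and BRAF RBD-LgBit; 10,000 cells/well incubated 3 h with compound, 16-point 3-fold dilution from 30 μM final. Live-cell Nano-Glo substrate added, luminescence read at 20 min; disruption seen as luminescence decrease vs DMSO.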

[2] = target: KRAS G12V binding to BRAF (Homo sapiens (Human), UniProt P01116+P62937, G12V); test: KRAS-BRAF with CYPA (500 nM) interaction assay (TR-FRET), G12V; assay type: biochemical
Method in brief: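 A TR-FRET assay measured how compound, in the presence of CYPA, disrupts binding of GMPPNP-loaded 6His-KRAS G12V to BRAF. The buffer contained 25 mM HEPES PH=7.4, 0.002% Tween20, 0.1% BSA, 100 mM NaCl, 5 mM MgCl2 and 10 μM GMPPNP. Compounds ran as a 16-point 3-fold dilution series from 10 μM for 3 hours.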

[3] = test system: phosphorylation of ERK, KRAS G12V in SW620; test: pERK inhibition assay, KRAS G12V; assay type: cell-based, human; conditions: Homo sapiens, SW-620, SW620, 4 hours
Method in brief: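 4 h compound treatment (0.5% DMSO final) of overnight-plated cells; formaldehyde fix, cold MeOH permeabilization, BSA block. Anti-pERK primary overnight at 4 °C, HRP anti-rabbit secondary, TMB readout at OD450. IC50 via 4-parameter sigmoidal model.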

Sequence of KRAS G12V binding to BRAF (P01116-2 other isoform, or with tags, fused parts or gaps G12V): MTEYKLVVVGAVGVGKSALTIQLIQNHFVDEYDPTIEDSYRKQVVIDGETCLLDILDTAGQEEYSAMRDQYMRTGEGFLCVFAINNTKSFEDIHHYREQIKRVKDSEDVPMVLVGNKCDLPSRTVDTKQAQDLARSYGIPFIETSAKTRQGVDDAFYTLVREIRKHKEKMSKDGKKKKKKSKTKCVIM
Sequence of KRAS G12V binding to BRAF (P62937 whole entry): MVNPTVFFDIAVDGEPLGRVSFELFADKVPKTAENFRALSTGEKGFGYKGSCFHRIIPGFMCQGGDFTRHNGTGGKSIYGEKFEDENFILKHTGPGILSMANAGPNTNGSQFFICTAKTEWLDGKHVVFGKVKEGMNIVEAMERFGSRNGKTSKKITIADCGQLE
Sequence of KRAS G12C-BRAF complex (P01116-2 other isoform, or with tags, fused parts or gaps G12C): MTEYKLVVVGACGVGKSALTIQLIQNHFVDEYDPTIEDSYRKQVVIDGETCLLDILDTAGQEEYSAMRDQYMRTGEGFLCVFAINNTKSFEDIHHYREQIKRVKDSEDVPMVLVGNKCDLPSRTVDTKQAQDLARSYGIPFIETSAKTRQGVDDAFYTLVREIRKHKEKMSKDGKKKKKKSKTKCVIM
Sequence of KRAS G12C-BRAF complex (P62937 whole entry): as the sequence (P62937 whole entry) above

SMILES | IC50 [1] [nM] | IC50 (KRAS G12C-BRAF complex) [nM] | IC50 [2] [nM] | IC50 [3] [nM]
CO[C@@H](C)c1ncc(N2CCN(C)CC2)cc1-c1c2c3cc(c(F)cc3n1CC(F)(F)F)-c1csc(n1)C[C@H](NC(=O)[C@H](C(C)C)N1CCC[C@@]3(CCN(C(=O)[C@H](F)Cl)C3)C1=O)C(=O)N1CCC[C@H](N1)C(=O)OCC(C)(C)C2 (single isomer, unassigned) [Example 16] | < 1 | 8 | > 10000 | 15
CCn1c(-c2cc(N3CCN(CC(F)(F)F)CC3)cnc2[C@H](C)OC)c2c3cc(c(F)cc31)-c1csc(n1)C[C@H](NC(=O)[C@H](C(C)C)N1CCC3(CN(C(=O)[C@H](F)Cl)C3)C1=O)C(=O)N1CCC[C@H](N1)C(=O)OCC(C)(C)C2 (atropisomer, axis not shown; (M)) [Example 37, (2S)-2-[2-[(2R)-2-chloro-2-fluoro-acetyl]-5-oxo-2,6-diazaspiro[3.4]octan-6-yl]-N-[(7S,13S)-21-ethyl-24-fluoro-(20M)-20-[2-[(1S)-1-methoxyethyl]-5-[4-(2,2,2-trifluoroethyl)piperazin-1-yl]-3-pyridyl]-17,17-dimethyl-8,14-dioxo-15-oxa-4-thia-9,21,27,28-tetrazapentacyclo[17.5.2.1^2,5.1^9,13.0^22,26]octacosa-1(25),2,5(28),19,22(26),23-hexaen-7-yl]-3-methyl-butanamide] | < 1 | – | 1360 | 21
CO[C@@H](C)c1ncc(N2CCN(C)CC2)cc1-c1c2c3c(F)c(ccc3n1CC(F)(F)F)-c1csc(n1)C[C@H](NC(=O)[C@H](C(C)C)N1CCCC3(CCN(C(=O)[C@H](F)Cl)CC3)C1=O)C(=O)N1CCC[C@H](N1)C(=O)OCC(C)(C)C2 (atropisomer, axis not shown; (M)) [Example 20, (2S)-2-[9-[(2R)-2-chloro-2-fluoro-acetyl]-1-oxo-2,9-diazaspiro[5.5]undecan-2-yl]-N-[(7S,13S)-25-fluoro-(20M)-20-[2-[(1S)-1-methoxyethyl]-5-(4-methylpiperazin-1-yl)-3-pyridyl]-17,17-dimethyl-8,14-dioxo-21-(2,2,2-trifluoroethyl)-15-oxa-4-thia-9,21,27,28-tetrazapentacyclo[17.5.2.1^2,5.1^9,13.0^22,26]octacosa-1(25),2,5(28),19,22(26),23-hexaen-7-yl]-3-methyl-butanamide] | 3 | 47 | 1780 | 73
CO[C@@H](C)c1ncc(N2CCN(C)CC2)cc1-c1c2c3cc(c(F)cc3n1CC(F)(F)F)-c1csc(n1)C[C@H](NC(=O)[C@H](C(C)C)N1CCCC3(CN(C(=O)[C@H](F)Cl)C3)C1=O)C(=O)N1CCC[C@H](N1)C(=O)OCC(C)(C)C2 (atropisomer, axis not shown; (M)) [Example 11, (2S)-2-[2-[(2R)-2-chloro-2-fluoro-acetyl]-5-oxo-2,6-diazaspiro[3.5]nonan-6-yl]-N-[(7S,13S)-24-fluoro-(20M)-20-[2-[(1S)-1-methoxyethyl]-5-(4-methylpiperazin-1-yl)-3-pyridyl]-17,17-dimethyl-8,14-dioxo-21-(2,2,2-trifluoroethyl)-15-oxa-4-thia-9,21,27,28-tetrazapentacyclo[17.5.2.1^2,5.1^9,13.0^22,26]octacosa-1(25),2,5(28),19,22(26),23-hexaen-7-yl]-3-methyl-butanamide] | < 1 | 5 | 1030 | 22
CC(C)[C@@H](C(=O)N[C@H]1Cc2cc(O)cc(c2)-c2ccc3c(C(C)(C)C#N)cn(c3c2)CC(C)(C)COC(=O)[C@@H]2CCCN(N2)C1=O)N1CCC2(CN(C(=O)CCl)C2)C1=O [RM44, reference compound] | 799 | 11700 | > 10000 | > 10000
CC(C)[C@@H](C(=O)N[C@H]1Cc2cc(O)cc(c2)-c2ccc3c(C(C)(C)C#N)cn(c3c2)CC(C)(C)COC(=O)[C@@H]2CCCN(N2)C1=O)N1CCCC2(CCN(C(=O)CCl)C2)C1=O (stereo partly drawn) [RM351, reference compound] | – | 1780 | > 10000 | > 10000
CCn1c(-c2cc(N3CCOCC3)cnc2[C@H](C)OC)c2c3cc(c(F)cc31)-c1csc(n1)C[C@H](NC(=O)[C@H](C(C)C)N(C)C(=O)C1(F)CCN(C(=O)[C@H](F)Cl)CC1)C(=O)N1CCC[C@H](N1)C(=O)OCC(C)(C)C2 (atropisomer, axis not shown; (M)) [Example 54, 1-[(2R)-2-chloro-2-fluoro-acetyl]-N-[(1S)-1-[[(7S,13S)-21-ethyl-24-fluoro-(20M)-20-[2-[(1S)-1-methoxyethyl]-5-morpholino-3-pyridyl]-17,17-dimethyl-8,14-dioxo-15-oxa-4-thia-9,21,27,28-tetrazapentacyclo[17.5.2.1^2,5.1^9,13.0^22,26]octacosa-1(25),2,5(28),19,22(26),23-hexaen-7-yl]carbamoyl]-2-methyl-propyl]-4-fluoro-N-methyl-piperidine-4-carboxamide] | < 1 | 3 | 217 | 15
CCn1c(-c2cc(N3CCOCC3)cnc2[C@H](C)OC)c2c3cc(c(F)cc31)-c1csc(n1)C[C@H](NC(=O)[C@H](C(C)C)N(C)C(=O)[C@H]1CCN(C(=O)[C@H](F)Cl)C1)C(=O)N1CCC[C@H](N1)C(=O)OCC(C)(C)C2 (atropisomer, axis not shown; (M)) [Example 55, (3S)-1-[(2R)-2-chloro-2-fluoro-acetyl]-N-[(1S)-1-[[(7S,13S)-21-ethyl-24-fluoro-(20M)-20-[2-[(1S)-1-methoxyethyl]-5-morpholino-3-pyridyl]-17,17-dimethyl-8,14-dioxo-15-oxa-4-thia-9,21,27,28-tetrazapentacyclo[17.5.2.1^2,5.1^9,13.0^22,26]octacosa-1(25),2,5(28),19,22(26),23-hexaen-7-yl]carbamoyl]-2-methyl-propyl]-N-methyl-pyrrolidine-3-carboxamide] | < 3 | 10 | 2110 | 75
CCn1c(-c2cc(N3CCOCC3)cnc2[C@H](C)OC)c2c3cc(c(F)cc31)-c1csc(n1)C[C@H](NC(=O)[C@H](C(C)C)N1CC[C@]3(CCN(C(=O)[C@H](F)Cl)C3)C1=O)C(=O)N1CCC[C@H](N1)C(=O)OCC(C)(C)C2 (atropisomer, axis not shown; (M)) [Example 51, (2S)-2-[(5S)-7-[(2R)-2-chloro-2-fluoro-acetyl]-1-oxo-2,7-diazaspiro[4.4]nonan-2-yl]-N-[(7S,13S)-21-ethyl-24-fluoro-(20M)-20-[2-[(1S)-1-methoxyethyl]-5-morpholino-3-pyridyl]-17,17-dimethyl-8,14-dioxo-15-oxa-4-thia-9,21,27,28-tetrazapentacyclo[17.5.2.1^2,5.1^9,13.0^22,26]octacosa-1(25),2,5(28),19,22(26),23-hexaen-7-yl]-3-methyl-butanamide] | < 1 | 34 | 6440 | 57
CCn1c(-c2cc(N3CCN(CC(F)(F)F)CC3)cnc2[C@H](C)OC)c2c3cc(c(F)cc31)-c1csc(n1)C[C@H](NC(=O)[C@H](C(C)C)N(C)C(=O)C1(F)CCN(C(=O)[C@H](F)Cl)CC1)C(=O)N1CCC[C@H](N1)C(=O)OCC(C)(C)C2 (atropisomer, axis not shown; (M)) [Example 49, 1-[(2R)-2-chloro-2-fluoro-acetyl]-N-[(1S)-1-[[(7S,13S)-21-ethyl-24-fluoro-(20M)-20-[2-[(1S)-1-methoxyethyl]-5-[4-(2,2,2-trifluoroethyl)piperazin-1-yl]-3-pyridyl]-17,17-dimethyl-8,14-dioxo-15-oxa-4-thia-9,21,27,28-tetrazapentacyclo[17.5.2.1^2,5.1^9,13.0^22,26]octacosa-1(25),2,5(28),19,22(26),23-hexaen-7-yl]carbamoyl]-2-methyl-propyl]-4-fluoro-N-methyl-piperidine-4-carboxamide] | < 1 | 8 | 577 | 20
CO[C@@H](C)c1ncc(N2CCN(C)CC2)cc1-c1c2c3cc(c(C)cc3n1CC(F)(F)F)-c1csc(n1)C[C@H](NC(=O)[C@H](C(C)C)N(C)C(=O)C1(F)CCN(C(=O)[C@H](F)Cl)CC1)C(=O)N1CCC[C@H](N1)C(=O)OCC(C)(C)C2 (atropisomer, axis not shown; (M)) [Example 9, 1-[(2R)-2-chloro-2-fluoro-acetyl]-4-fluoro-N-[(1S)-1-[[(7S,13S)-(20M)-20-[2-[(1S)-1-methoxyethyl]-5-(4-methylpiperazin-1-yl)-3-pyridyl]-17,17,24-trimethyl-8,14-dioxo-21-(2,2,2-trifluoroethyl)-15-oxa-4-thia-9,21,27,28-tetrazapentacyclo[17.5.2.1^2,5.1^9,13.0^22,26]octacosa-1(25),2,5(28),19,22(26),23-hexaen-7-yl]carbamoyl]-2-methyl-propyl]-N-methyl-piperidine-4-carboxamide] | 7 | 64 | > 10000 | 22

— US20250206761A1, “HALOINDOLE MACROCYCLIC COMPOUNDS FOR THE TREATMENT OF CANCER” (Hoffmann-La Roche Inc., priority 2022, published 2025)
